Key:
[1] = target: T1, HDAC3 (Homo sapiens, UniProt O15379); experiment: HDAC3 protein level / degradation by immunoblot in HCT116 cells; assay type: cell-based; settings: even at 10 μM
T1 construct: endogenous in cells; host or cells: HCT116
Description: (§1) complex and inhibitor were then incubated at 20 °C, 100 RPM for 2 hours . After incubation, 10 μL of the Boc -(Ac)Lys -AMC substrate, dissolved in HDAC assay buffer, was added to each well. The plate was incubate d at 30 °C, 100 RPM for 1 hour, followed by addition of 50 μL of a developer buffer (50 mM Tris pH 7.5, 100 mM NaCl, 10 mg/mL trypsin) to quench the reaction. The reaction was allowed to develop for 10 minutes at 30 °C, 100 RPM. Fluorescence intensity was determined with the Victor X5 plate reader (Perkin Elmer, λex = 355 nm, λem = 460 nm). IC50 values were calculated using GraphPad Prism 7 software by non-linear regression, log (inhibitor) vs. response – variable slope (four […]
(§2) 6. Culture of HCT116 cells
HCT116 cells were maintained on 100 mm or 60 mm culture dishes in Dulbecco's Modified Eagle Medium (Gibco) supplemented with 10% fetal bovine serum (Sigma) and 1X glutamine/penicillin/streptomycin (Gibco) . Once the cells reached ~90% confluency, they were washed with warm PBS (Sigma), trypsinised using TrypLETM Express solution (Gibco) and put into an incubator at 37°C for 5 minutes. […]
mins, 4 °C) and the supernatant was collected. Protein concentrations were quantified via Bradford Assay using Protein Assay Dye Reagent Concentrate (BIO -RAD). […]

[2] = target: T2, HDAC1 (Homo sapiens, UniProt Q13547); experiment: HDAC1 protein level / degradation by immunoblot in HCT116 cells; assay type: cell-based; settings: even at 10 μM
T2 construct: endogenous in cells; host or cells: HCT116
Description: as §1, with “Victor” for “Victor X5 plate reader (Perkin Elmer, λex = 355 nm, λem = 460 nm). IC50 values were calculated using GraphPad Prism 7 software by non-linear regression, log (inhibitor) vs. response – variable slope (four”
IC50 values were calculated using GraphPad
Prism 7 software by non-linear regression, log (inhibitor) vs. response – variable slope (four […]
as §2
HCT116 cells were maintained on 100 mm or 60 mm culture dishes in Dulbecco's Modified Eagle Medium (Gibco) supplemented with 10% fetal bovine serum (Sigma) and 1X glutamine/penicillin/streptomycin (Gibco) . Once the cells reached ~90% confluency, they were washed with warm PBS (Sigma), trypsinised using TrypLETM Express solution (Gibco) and put into an incubator at 37°C for 5 minutes. Once dissociated, cell media was used to dilute the cells into required

T2 sequence (Q13547 whole entry): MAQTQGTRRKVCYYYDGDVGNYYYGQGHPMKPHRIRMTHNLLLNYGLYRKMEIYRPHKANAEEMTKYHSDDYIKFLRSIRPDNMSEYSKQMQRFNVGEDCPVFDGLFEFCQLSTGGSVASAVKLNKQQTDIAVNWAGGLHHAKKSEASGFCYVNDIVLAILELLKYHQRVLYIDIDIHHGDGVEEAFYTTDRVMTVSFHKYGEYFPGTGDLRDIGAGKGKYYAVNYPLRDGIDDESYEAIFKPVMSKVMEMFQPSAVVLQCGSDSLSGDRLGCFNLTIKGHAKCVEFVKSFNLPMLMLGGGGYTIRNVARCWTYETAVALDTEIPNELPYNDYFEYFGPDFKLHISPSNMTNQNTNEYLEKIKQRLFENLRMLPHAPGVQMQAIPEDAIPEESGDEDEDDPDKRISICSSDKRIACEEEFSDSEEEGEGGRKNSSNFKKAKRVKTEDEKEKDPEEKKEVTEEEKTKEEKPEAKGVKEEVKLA
T1 sequence (O15379 whole entry): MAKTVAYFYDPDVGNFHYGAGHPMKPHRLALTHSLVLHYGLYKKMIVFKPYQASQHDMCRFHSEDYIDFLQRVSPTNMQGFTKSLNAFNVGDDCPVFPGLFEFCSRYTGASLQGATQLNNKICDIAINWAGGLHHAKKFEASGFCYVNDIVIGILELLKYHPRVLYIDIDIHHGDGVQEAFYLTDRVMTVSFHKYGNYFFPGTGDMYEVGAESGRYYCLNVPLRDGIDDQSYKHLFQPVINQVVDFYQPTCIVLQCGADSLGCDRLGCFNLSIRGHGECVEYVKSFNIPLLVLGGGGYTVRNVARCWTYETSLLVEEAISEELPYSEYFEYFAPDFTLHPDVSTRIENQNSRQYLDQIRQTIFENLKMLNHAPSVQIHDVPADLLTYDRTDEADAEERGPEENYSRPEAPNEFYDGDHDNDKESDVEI
T1 sequence (Q9Y618 whole entry partner): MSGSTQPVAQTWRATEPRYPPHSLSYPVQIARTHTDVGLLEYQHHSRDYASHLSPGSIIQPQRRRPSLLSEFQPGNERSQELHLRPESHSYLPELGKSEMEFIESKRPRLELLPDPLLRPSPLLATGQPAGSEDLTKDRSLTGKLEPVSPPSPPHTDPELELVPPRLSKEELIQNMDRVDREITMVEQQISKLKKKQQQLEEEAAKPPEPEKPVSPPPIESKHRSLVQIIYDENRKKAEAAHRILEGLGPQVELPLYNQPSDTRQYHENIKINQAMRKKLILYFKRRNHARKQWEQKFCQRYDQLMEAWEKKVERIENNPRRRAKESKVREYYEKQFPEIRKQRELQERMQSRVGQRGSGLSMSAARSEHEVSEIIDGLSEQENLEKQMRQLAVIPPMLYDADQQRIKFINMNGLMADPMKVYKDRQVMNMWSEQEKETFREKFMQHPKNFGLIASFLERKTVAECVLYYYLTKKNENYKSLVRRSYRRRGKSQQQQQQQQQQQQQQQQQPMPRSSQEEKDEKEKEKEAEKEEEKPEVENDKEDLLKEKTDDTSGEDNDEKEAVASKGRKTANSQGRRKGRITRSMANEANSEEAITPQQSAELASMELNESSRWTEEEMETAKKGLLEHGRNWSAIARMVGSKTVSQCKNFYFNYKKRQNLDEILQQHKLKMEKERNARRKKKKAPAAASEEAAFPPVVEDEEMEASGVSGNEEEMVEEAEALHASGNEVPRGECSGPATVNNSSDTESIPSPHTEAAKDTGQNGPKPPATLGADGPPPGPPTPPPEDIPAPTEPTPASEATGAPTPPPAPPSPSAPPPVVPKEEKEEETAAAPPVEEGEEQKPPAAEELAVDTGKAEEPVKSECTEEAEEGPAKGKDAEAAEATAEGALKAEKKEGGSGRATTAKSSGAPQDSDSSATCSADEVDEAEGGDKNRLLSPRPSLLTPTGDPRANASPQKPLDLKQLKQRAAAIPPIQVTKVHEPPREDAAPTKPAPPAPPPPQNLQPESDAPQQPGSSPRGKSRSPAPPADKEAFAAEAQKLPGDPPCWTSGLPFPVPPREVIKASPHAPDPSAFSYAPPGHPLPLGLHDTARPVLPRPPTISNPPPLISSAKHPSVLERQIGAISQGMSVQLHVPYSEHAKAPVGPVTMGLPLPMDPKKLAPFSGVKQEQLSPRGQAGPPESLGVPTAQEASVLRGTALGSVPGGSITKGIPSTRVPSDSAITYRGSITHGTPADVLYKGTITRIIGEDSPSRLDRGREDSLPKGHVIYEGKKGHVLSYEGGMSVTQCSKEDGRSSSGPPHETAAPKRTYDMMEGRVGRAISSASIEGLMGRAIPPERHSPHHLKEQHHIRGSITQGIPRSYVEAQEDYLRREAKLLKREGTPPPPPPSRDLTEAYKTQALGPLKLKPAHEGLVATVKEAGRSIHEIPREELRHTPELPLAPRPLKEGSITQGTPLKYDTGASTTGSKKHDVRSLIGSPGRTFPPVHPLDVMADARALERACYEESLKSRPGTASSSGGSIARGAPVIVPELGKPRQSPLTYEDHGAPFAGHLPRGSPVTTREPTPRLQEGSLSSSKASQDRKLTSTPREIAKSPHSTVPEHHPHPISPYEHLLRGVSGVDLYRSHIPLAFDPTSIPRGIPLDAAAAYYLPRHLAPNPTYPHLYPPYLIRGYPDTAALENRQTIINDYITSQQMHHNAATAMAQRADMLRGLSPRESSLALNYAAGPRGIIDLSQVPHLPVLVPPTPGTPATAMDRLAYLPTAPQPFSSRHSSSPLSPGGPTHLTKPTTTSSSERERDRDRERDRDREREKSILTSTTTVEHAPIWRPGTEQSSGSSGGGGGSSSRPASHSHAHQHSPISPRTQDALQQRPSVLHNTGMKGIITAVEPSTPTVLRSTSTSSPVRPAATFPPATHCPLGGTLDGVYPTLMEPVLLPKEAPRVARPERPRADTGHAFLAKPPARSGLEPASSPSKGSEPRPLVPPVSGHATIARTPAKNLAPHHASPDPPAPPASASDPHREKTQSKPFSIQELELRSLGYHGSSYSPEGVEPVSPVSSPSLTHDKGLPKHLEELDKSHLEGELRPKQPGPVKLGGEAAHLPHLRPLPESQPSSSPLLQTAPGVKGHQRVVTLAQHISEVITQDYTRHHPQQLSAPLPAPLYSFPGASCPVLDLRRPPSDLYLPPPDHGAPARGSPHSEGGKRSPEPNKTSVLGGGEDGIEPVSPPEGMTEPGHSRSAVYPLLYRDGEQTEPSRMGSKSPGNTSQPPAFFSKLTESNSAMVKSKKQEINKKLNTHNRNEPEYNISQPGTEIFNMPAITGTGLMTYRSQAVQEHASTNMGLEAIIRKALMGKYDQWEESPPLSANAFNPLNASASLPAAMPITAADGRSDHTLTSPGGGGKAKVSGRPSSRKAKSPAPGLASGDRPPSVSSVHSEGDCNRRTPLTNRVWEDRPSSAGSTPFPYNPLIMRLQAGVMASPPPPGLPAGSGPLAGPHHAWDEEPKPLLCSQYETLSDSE

In the case of `Cc1ncsc1-c1ccc(CNC(=O)[C@@H]2C[C@@H](O)CN2C(=O)[C@@H](NC(=O)CCCCCCCCCC(=O)N2CCN(c3cnc(C(=O)Nc4cc(-c5ccncc5)ccc4N)cn3)CC2)C(C)(C)C)cc1` [JPS062], the “degradation of HDAC3” value [1] is reported as “no degradation” and the “degradation of HDAC1” value [2] is reported as “no degradation”.

— PMC12512194, “The Allosteric Regulator Inositol Phosphate Dramatically Affects the Efficacy and Selectivity of Inhibitors for Different HDAC Complexes” (Journal of the American Chemical Society, 2025)
